Like-named read-outs stand apart in the source and are kept apart here.
What was measured:
β3Gal-T5 = target: T1, β3Gal-T5 (Homo sapiens, UniProt Q9Y2C3, M85T); test: Galactosyltransferase assay, partially purified secreted recombinant β3Gal-T5, saccharide acceptors; format: biochemical; settings: for β3Gal-T5 activity, substrate concentration 1 mM: acceptor 1 mM; for β3Gal-T5 activity, substrate concentration 5 mM: acceptor 5 mM
T1 construct: designed to exclude the hydrophobic transmembrane segment and to encode amino acid residues 25-310; secretion signal of vector pAcGP67B (gp67); made in house; host or cells: baculovirus; Sf9 cells (media) and High Five cells (serum-free medium, partially purified)
T1 sequence (Q9Y2C3 25-310 M85T): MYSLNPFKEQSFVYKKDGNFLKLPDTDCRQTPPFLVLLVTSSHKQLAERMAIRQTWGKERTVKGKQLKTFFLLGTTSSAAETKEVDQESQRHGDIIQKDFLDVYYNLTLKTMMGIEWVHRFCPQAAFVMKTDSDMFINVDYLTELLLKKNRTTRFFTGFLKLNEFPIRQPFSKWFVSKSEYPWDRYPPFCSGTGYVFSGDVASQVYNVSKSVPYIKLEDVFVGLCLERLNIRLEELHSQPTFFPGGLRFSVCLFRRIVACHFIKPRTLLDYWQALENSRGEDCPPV
From the text: PCR product was cloned into the BamHI site of pAcGP67B (Pharmingen). […] This PCR product was cloned into the BamHI site of pVL1193 (Pharmingen). Both soluble and full length constructs were fully sequenced to confirm fidelity. Plasmids […]5-full were co-transfected with Baculo-GoldTM DNA (Pharmingen) as described previously (Bennett, […]. and Clausen, H. cDNA cloning and expression of a novel human UDP-N-acetyl-alpha-D-galactosamine. Polypeptide N-acetyl-galactosaminyl-transferase, GalNAc-T3. J. Biol. Chem. 271:17006-17012, 1996). Recombinant Baculo-virus were obtained after two successive amplifications in Sf9 cells grown in serum-containing medium, and titers of virus were estimated by titration in 24-well plates with monitoring of enzyme activities. […] J. Biol. […] J. Biol. […] Polypeptide N-acetyl-galactosaminyl-transferase, GalNAc-T3. J. Biol. Chem. 271:17006-17012, 1996). For large scale expression amplified virus was used to infect High FiveTM cells grown in serum-free media (Invitrogen) in upright roller bottles shaking at 140 rpm and 27° C. The kinetic properties were determined with partially purified, secreted forms of the enzymes. Semipurification of enzymes from serum-free medium of infected High-FiveTM cells was performed by sequential Amberlite, DEAE-Sephacel and 5-Sepharose chromatography as described previously ([…]., et al. […] J. Biol. Chem. 272:23503-23514, 1997). Comparisons of enzymes were performed relatively to the activity obtained with βGlcNAc-Bz1 (Tables II and III). Full length enzymes were assayed with 1% Triton CF54 homogenates of washed cells. […] Reaction products were quantified by Dowex-1 chromatography. […] P. and Clausen, H. […] J. Biol. Chem. 273:29295-29305, 1998). The transfer of Gal was evaluated after acid precipitation by filtration through Whatman GF/C glass fibre filters. […] Assays with glycolipid acceptors were conducted as previously described (Holmes, E. H. […] Arch Biochem Biophys 270:630-646, 1989) in reaction mixtures containing 2.5 μmol HEPES buffer, pH 7.2, μmol MnCl2, 100 μg taurodeoxycholate or Triton CF-54, 20 μg acceptor glycolipid, 15 nmol UDP-[^14C]-galactose (13,000 cpm/nmol) and enzyme in a total volume of 100 μl. Conditions for incubation and product isolation were as previously described (Id.).

β3Gal-T2 = target: T2, β3Gal-T2 (Homo sapiens, UniProt O43825); test: Galactosyltransferase assay, recombinant β3Gal-T2, saccharide acceptors; format: biochemical
T2 construct: The kinetic properties were determined with partially purified, secreted forms of the enzymes; made in house; host or cells: baculovirus; Sf9 / High Five insect cells, medium
T2 sequence (O43825 46-422 limits assumed): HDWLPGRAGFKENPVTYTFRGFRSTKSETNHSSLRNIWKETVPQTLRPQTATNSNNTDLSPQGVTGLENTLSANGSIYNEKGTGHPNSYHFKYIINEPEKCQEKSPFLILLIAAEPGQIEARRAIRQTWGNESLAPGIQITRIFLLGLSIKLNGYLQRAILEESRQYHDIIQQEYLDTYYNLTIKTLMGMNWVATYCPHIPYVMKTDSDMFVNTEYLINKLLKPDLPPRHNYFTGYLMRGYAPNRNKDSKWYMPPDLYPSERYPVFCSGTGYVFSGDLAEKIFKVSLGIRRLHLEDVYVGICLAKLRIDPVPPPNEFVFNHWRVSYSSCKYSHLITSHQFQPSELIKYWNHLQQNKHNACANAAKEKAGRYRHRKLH

Q: CC(=O)N[C@H]1[C@H](OCc2ccccc2)O[C@H](CO)[C@@H](O)[C@@H]1O [β-D-GlcNAc-Bzl] was tested. Which Vmax (β3Gal-T5; Table V) did it give?
A: 873.4 pmol/min

Q: What about the Km (β3Gal-T5; Table V, read-out: Km) of the same compound?
A: 20400 µM

Q: What about the “β3Gal-T5 activity, substrate concentration 1 mM” value (β3Gal-T5) of the same compound?
A: 1.5 nmol/min/mL

Q: And the “β3Gal-T5 activity, substrate concentration 5 mM” value (β3Gal-T5)?
A: 3.9 nmol/min/mL

Q: What about the β3Gal-T5 activity with β-D-GlcNAc-Bzl (Table III) (β3Gal-T5; β-D-GlcNAc-Bzl at 20 mM) of the same compound?
A: 0.1 nmol/min

Q: And the “β3Gal-T5 activity with βGlcNAc-Bzl” value (β3Gal-T5; β-D-GlcNAc-Bzl at 20 mM)?
A: 0.1 nmol/min

Q: What about the β3Gal-T2 activity with β-D-GlcNAc-Bzl (Table III) (β3Gal-T2; β-D-GlcNAc-Bzl at 80 mM) of the same compound?
A: 0.04 nmol/min

Q: And the “β3Gal-T2 activity with βGlcNAc-Bzl” value (β3Gal-T2; β-D-GlcNAc-Bzl at 80 mM)?
A: 0.04 nmol/min

Q: What does the source list for CC(=O)NC1C(OC2C(O)C(CO)OC(Oc3ccc([N+](=O)[O-])cc3)C2NC(C)=O)OC(CO)C(O)C1O [β-D-GlcNAc-(1–3)-α-D-GalNAc-p-Nph]?
A: β3Gal-T5 activity, acceptor 0.2 mM (β3Gal-T5): 0.3 nmol/min; β3Gal-T5 ratio to value with βGlcNAc-Bzl, acceptor 0.2 mM (β3Gal-T5): (0.3); β3Gal-T5 activity, acceptor 2 mM (β3Gal-T5): 0.2 nmol/min; β3Gal-T5 ratio to value with βGlcNAc-Bzl, acceptor 2 mM (β3Gal-T5): (2.0); Vmax (β3Gal-T5; Table V): 931.1 pmol/min; Km (β3Gal-T5; Table V, read-out: Km): 2800 µM; β3Gal-T5 activity, substrate concentration 1 mM (β3Gal-T5): 10.8 nmol/min/mL; β3Gal-T5 activity, substrate concentration 5 mM (β3Gal-T5): 34.4 nmol/min/mL; Km (β3Gal-T5; acceptor substrate, read-out: apparent Km of β3Gal-T5): 2800 µM; β3Gal-T2 activity, acceptor 0.2 mM (β3Gal-T2): 0.0 nmol/min; β3Gal-T2 ratio to value with βGlcNAc-Bzl, acceptor 0.2 mM (β3Gal-T2): (0.0); β3Gal-T2 activity, acceptor 2 mM (β3Gal-T2): 0.0 nmol/min; β3Gal-T2 ratio to value with βGlcNAc-Bzl, acceptor 2 mM (β3Gal-T2): (0.0)

Q: What does the source list for CC(=O)N[C@H]1[C@H](OC[C@H]2O[C@H](Oc3ccc([N+](=O)[O-])cc3)[C@H](NC(C)=O)[C@@H](O[C@@H]3O[C@H](CO)[C@H](O)[C@H](O)[C@H]3O)[C@H]2O)O[C@H](CO)[C@@H](O)[C@@H]1O [βGlcNAc(1,6)[βGal(1,3)]αGalNAc-p-Nph]?
A: β3Gal-T5 activity, acceptor 0.2 mM (β3Gal-T5): 0.0 nmol/min; β3Gal-T5 ratio to value with βGlcNAc-Bzl, acceptor 0.2 mM (β3Gal-T5): (0.0); β3Gal-T5 activity, acceptor 2 mM (β3Gal-T5): 0.01 nmol/min; β3Gal-T5 ratio to value with βGlcNAc-Bzl, acceptor 2 mM (β3Gal-T5): (0.1); β3Gal-T2 activity, acceptor 0.2 mM (β3Gal-T2): 0.0 nmol/min; β3Gal-T2 ratio to value with βGlcNAc-Bzl, acceptor 0.2 mM (β3Gal-T2): (0.0); β3Gal-T2 activity, acceptor 2 mM (β3Gal-T2): 0.0 nmol/min; β3Gal-T2 ratio to value with βGlcNAc-Bzl, acceptor 2 mM (β3Gal-T2): (0.0)
